Reference: PMC8248988, “A signal capture and proofreading mechanism for the KDEL-receptor explains selectivity and dynamic range in ER retrieval” (eLife, 2021)

Tested on: HeLa S3 cells
Experiment: ER secretion assay, xDEL ligand secretion (Western blot for mScarlet)
Assay type: cell-based, human
Source text: Figure 1. ER retrieval signal abundance and affinity are not correlated. (a) Sequence logos for ER resident proteins with C-terminal KDEL retrieval signals and variants thereof calculated using frequency or protein abundance ([Itzhak et al., 2017]; [Itzhak et al., 2016]). (b) Combined cellular concentrations of ER resident proteins with canonical KDEL, RDEL, and HDEL retrieval sequences in HeLa cells and mouse brain. (c) Competition binding assays for [^3H]-TAEHDEL and unlabelled TAEKDEL, TAERDEL, and TAEHDEL to the KDEL receptor. IC50 values for the competing peptides were used to calculate the apparent KDwith the Cheng-Prusoff equation ([Cheng and Prusoff, 1973]). (d) Endogenous KDEL receptor redistribution was measured in COS-7 cells in the absence (-ligand) or presence of K/R/H/A/DDEL (mScarlet-xDEL^sec). TGN46 was used as a Golgi marker. Scale bar is 10 µm. (e) The mean difference for K/R/H/A/DDEL comparisons against the shared no ligand control are shown as Cummings estimation plots. The individual data points for the fraction of KDEL receptor fluorescence in the Golgi are plotted on the upper axes with sample sizes and p values. Figure 1—source data 1. Source data for the ligand-induced KDELR receptor retrieval assays in Figure 1e. Figure 1—figure supplement 1. Abundance of ER resident proteins and chaperones in human cells and mouse brain. (a) The mean concentration of ER resident chaperones with the indicated ER retrieval sequence variant is plotted in the bar graph ([Itzhak et al., 2017]; [Itzhak et al., 2016]). (b) Combined cellular concentrations of ER resident proteins with canonical KDEL, RDEL, and HDEL retrieval sequences in HeLa cells and mouse brain. (c) The mean concentration of KDELR1, KDELR2, and KDELR3 in HeLa cells and mouse brain is plotted in the bar graph ([Itzhak et al., 2017]; [Itzhak et al., 2016]). (d) Cells and media collected from HeLa S3 cells expressing the xDEL variants (mScarlet-xDEL^sec) indicated in the figure were Western blotted for resident ER chaperones and KDELR. (e) A bar graph of xDEL secretion showing mean ± SEM (n = 3). (f). Endogenous ER chaperone secretion was measured by western blotting after challenge with different retrieval signals, and plotted as a bar graph showing mean ± SEM (n = 3). Figure 1—figure supplement 1—source data 1. Source data for analysis of ER protein levels in Figure 1—figure supplement 1a and c. Figure 1—figure supplement 1—source data 2. […] (a) Distribution of human KDELR1 and (b) KDELR2 was measured in COS-7 cells in the absence (-ligand) or presence of K/R/H/A/DDEL retrieval signals (K/R/H/A/DDEL^sec). […] The fraction of KDEL receptor localised to the Golgi was measured before (no ligand) and after challenge with different retrieval signals as indicated. […]

ADEL [pcDNA3.1 hGHss-mScarlet-H. sapiens BiP639-654K651A (ADEL^SEC), secreted mScarlet fusion with human BiP C-terminus, ADEL signal]
retention or secretion of the xDEL ligand (in words) (HeLa S3 cells): mostly secreted | xDEL secretion (mScarlet) (mean, HeLa S3, 24 hr, cells and media Western blot densitometry): 51.6 | xDEL secretion (mScarlet) (replicate 1): 33.9 | xDEL secretion (mScarlet) (replicate 2): 69.2
